Measurements: PubChem BioAssay AID1259407 (Chemical Carcinogenesis Research Information System (CCRIS), 2018)
The source made the active and inactive calls. The rule behind the calls is not given here.

Test system: CCRIS mutagenicity, Ames/micronucleus/aberration tests
Assay: CCRIS mutagenicity studies
[1] = Test System: AMES SALMONELLA TYPHIMURIUM, Strain/Indicator: TA97, Metabolic Activation: NONE, Method: PREINCUBATION
[2] = Test System: AMES SALMONELLA TYPHIMURIUM, Strain/Indicator: TA98, Metabolic Activation: NONE, Method: PREINCUBATION
[3] = Test System: AMES SALMONELLA TYPHIMURIUM, Strain/Indicator: TA98, Metabolic Activation: NONE, Method: STANDARD PLATE
[4] = Test System: AMES SALMONELLA TYPHIMURIUM, Strain/Indicator: TA100, Metabolic Activation: NONE, Method: PREINCUBATION
[5] = Test System: AMES SALMONELLA TYPHIMURIUM, Strain/Indicator: TA100, Metabolic Activation: NONE, Method: STANDARD PLATE
[6] = Test System: AMES SALMONELLA TYPHIMURIUM, Strain/Indicator: TA1535, Metabolic Activation: NONE, Method: PREINCUBATION
[7] = Test System: AMES SALMONELLA TYPHIMURIUM, Strain/Indicator: TA1537, Metabolic Activation: NONE, Method: STANDARD PLATE

O=P(O)(O)O
mutagenic call (End Point: IN VITRO CHROMOSOMAL ABERRATIONS, Test System: CHO CELLS, Metabolic Activation: NONE): inactive; negative | mutagenic call (End Point: IN VITRO CHROMOSOMAL ABERRATIONS, Test System: CHO CELLS, Metabolic Activation: RAT, LIVER, S-9, AROCLOR 1254): active; positive | mutagenic call (Test System: AMES SALMONELLA TYPHIMURIUM, Strain/Indicator: TA97, Metabolic Activation: HAMSTER, LIVER, S-9, AROCLOR 1254, Method: PREINCUBATION): inactive; negative | mutagenic call [1]: inactive; negative | mutagenic call (Test System: AMES SALMONELLA TYPHIMURIUM, Strain/Indicator: TA97, Metabolic Activation: NONE, Method: STANDARD PLATE): inactive; negative | mutagenic call (Test System: AMES SALMONELLA TYPHIMURIUM, Strain/Indicator: TA97, Metabolic Activation: RAT, LIVER, S-9, AROCLOR 1254, Method: PREINCUBATION): inactive; negative | mutagenic call (Test System: AMES SALMONELLA TYPHIMURIUM, Strain/Indicator: TA97, Metabolic Activation: RAT, LIVER, S-9, PHENOBARBITAL, Method: STANDARD PLATE): inactive; negative | mutagenic call (Test System: AMES SALMONELLA TYPHIMURIUM, Strain/Indicator: TA97, Metabolic Activation: S-9, Method: PREINCUBATION): inactive; negative | mutagenic call (Test System: AMES SALMONELLA TYPHIMURIUM, Strain/Indicator: TA98, Metabolic Activation: HAMSTER, LIVER, S-9, AROCLOR 1254, Method: PREINCUBATION): inactive; negative | mutagenic call [2]: inactive; negative | mutagenic call [3]: inactive; negative | mutagenic call (Test System: AMES SALMONELLA TYPHIMURIUM, Strain/Indicator: TA98, Metabolic Activation: RAT, LIVER, S-9, AROCLOR 1254, Method: PREINCUBATION): inactive; negative | mutagenic call (Test System: AMES SALMONELLA TYPHIMURIUM, Strain/Indicator: TA98, Metabolic Activation: RAT, LIVER, S-9, PHENOBARBITAL, Method: STANDARD PLATE): inactive; negative | mutagenic call (Test System: AMES SALMONELLA TYPHIMURIUM, Strain/Indicator: TA100, Metabolic Activation: HAMSTER, LIVER, S-9, AROCLOR 1254, Method: PREINCUBATION): inactive; negative | mutagenic call [4]: inactive; negative | mutagenic call [5]: inactive; negative | mutagenic call (Test System: AMES SALMONELLA TYPHIMURIUM, Strain/Indicator: TA100, Metabolic Activation: RAT, LIVER, S-9, AROCLOR 1254, Method: PREINCUBATION): inactive; negative | mutagenic call (Test System: AMES SALMONELLA TYPHIMURIUM, Strain/Indicator: TA100, Metabolic Activation: RAT, LIVER, S-9, PHENOBARBITAL, Method: STANDARD PLATE): inactive; negative | mutagenic call (Test System: AMES SALMONELLA TYPHIMURIUM, Strain/Indicator: TA102, Metabolic Activation: NONE, Method: PREINCUBATION): inactive; negative | mutagenic call (Test System: AMES SALMONELLA TYPHIMURIUM, Strain/Indicator: TA102, Metabolic Activation: RAT, LIVER, S-9, AROCLOR 1254, Method: PREINCUBATION): inactive; negative | mutagenic call (Test System: AMES SALMONELLA TYPHIMURIUM, Strain/Indicator: TA102, Metabolic Activation: S-9, Method: PREINCUBATION): inactive; negative | mutagenic call (Test System: AMES SALMONELLA TYPHIMURIUM, Strain/Indicator: TA104, Metabolic Activation: NONE, Method: STANDARD PLATE): inactive; negative | mutagenic call (Test System: AMES SALMONELLA TYPHIMURIUM, Strain/Indicator: TA104, Metabolic Activation: RAT, LIVER, S-9, PHENOBARBITAL, Method: STANDARD PLATE): inactive; negative | mutagenic call [6]: inactive; negative | mutagenic call (Test System: AMES SALMONELLA TYPHIMURIUM, Strain/Indicator: TA1537, Metabolic Activation: HAMSTER, LIVER, S-9, AROCLOR 1254, Method: PREINCUBATION): inactive; negative | mutagenic call (Test System: AMES SALMONELLA TYPHIMURIUM, Strain/Indicator: TA1537, Metabolic Activation: NONE, Method: PREINCUBATION): inactive; negative | mutagenic call (Test System: AMES SALMONELLA TYPHIMURIUM, Strain/Indicator: TA1537, Metabolic Activation: RAT, LIVER, S-9, AROCLOR 1254, Method: PREINCUBATION): inactive; negative

c1ccc(Nc2ccccc2)cc1
mutagenic call (End Point: In vitro chromosomal aberrations, Test System: Chinese hamster lung (CHL/IU) cells, Metabolic Activation: Rat, Liver, S9, Phenobarbital and 5,6-benzoflavone): active; positive (structural changes). toxicity at 0.14 mg/ml. | mutagenic call (Test System: AMES SALMONELLA TYPHIMURIUM, Strain/Indicator: TA97, Metabolic Activation: HAMSTER, LIVER, S-9, AROCLOR 1254 (10%), Method: PREINCUBATION): inactive; negative | mutagenic call (Test System: AMES SALMONELLA TYPHIMURIUM, Strain/Indicator: TA97, Metabolic Activation: HAMSTER, LIVER, S-9, AROCLOR 1254 (30%), Method: PREINCUBATION): inactive; negative | mutagenic call [1]: inactive; negative | mutagenic call (Test System: AMES SALMONELLA TYPHIMURIUM, Strain/Indicator: TA97, Metabolic Activation: RAT, LIVER, S-9, AROCLOR 1254 (10%), Method: PREINCUBATION): inactive; negative | mutagenic call (Test System: AMES SALMONELLA TYPHIMURIUM, Strain/Indicator: TA97, Metabolic Activation: RAT, LIVER, S-9, AROCLOR 1254 (30%), Method: PREINCUBATION): inactive; negative | mutagenic call (Test System: AMES SALMONELLA TYPHIMURIUM, Strain/Indicator: TA98, Metabolic Activation: HAMSTER, LIVER, S-9, AROCLOR 1254 (10%), Method: PREINCUBATION): inactive; negative | mutagenic call (Test System: AMES SALMONELLA TYPHIMURIUM, Strain/Indicator: TA98, Metabolic Activation: HAMSTER, LIVER, S-9, AROCLOR 1254 (30%), Method: PREINCUBATION): inactive; negative | mutagenic call [2]: inactive; negative | mutagenic call (Test System: AMES SALMONELLA TYPHIMURIUM, Strain/Indicator: TA98, Metabolic Activation: RAT, LIVER, S-9, AROCLOR 1254 (10%), Method: PREINCUBATION): inactive; negative | mutagenic call (Test System: AMES SALMONELLA TYPHIMURIUM, Strain/Indicator: TA98, Metabolic Activation: RAT, LIVER, S-9, AROCLOR 1254 (30%), Method: PREINCUBATION): inactive; negative | mutagenic call (Test System: AMES SALMONELLA TYPHIMURIUM, Strain/Indicator: TA100, Metabolic Activation: HAMSTER, LIVER, S-9, AROCLOR 1254 (10%), Method: PREINCUBATION): inactive; negative | mutagenic call (Test System: AMES SALMONELLA TYPHIMURIUM, Strain/Indicator: TA100, Metabolic Activation: HAMSTER, LIVER, S-9, AROCLOR 1254 (30%), Method: PREINCUBATION): inactive; negative | mutagenic call [4]: inactive; negative | mutagenic call (Test System: AMES SALMONELLA TYPHIMURIUM, Strain/Indicator: TA100, Metabolic Activation: RAT, LIVER, S-9, AROCLOR 1254 (10%), Method: PREINCUBATION): inactive; negative | mutagenic call (Test System: AMES SALMONELLA TYPHIMURIUM, Strain/Indicator: TA100, Metabolic Activation: RAT, LIVER, S-9, AROCLOR 1254 (30%), Method: PREINCUBATION): inactive; negative | mutagenic call (Test System: AMES SALMONELLA TYPHIMURIUM, Strain/Indicator: TA1535, Metabolic Activation: HAMSTER, LIVER, S-9, AROCLOR 1254 (10%), Method: PREINCUBATION): inactive; negative | mutagenic call (Test System: AMES SALMONELLA TYPHIMURIUM, Strain/Indicator: TA1535, Metabolic Activation: HAMSTER, LIVER, S-9, AROCLOR 1254 (30%), Method: PREINCUBATION): inactive; negative | mutagenic call [6]: inactive; negative | mutagenic call (Test System: AMES SALMONELLA TYPHIMURIUM, Strain/Indicator: TA1535, Metabolic Activation: RAT, LIVER, S-9, AROCLOR 1254 (10%), Method: PREINCUBATION): inactive; negative | mutagenic call (Test System: AMES SALMONELLA TYPHIMURIUM, Strain/Indicator: TA1535, Metabolic Activation: RAT, LIVER, S-9, AROCLOR 1254 (30%), Method: PREINCUBATION): inactive; negative

[N-]=[N+]=Nc1ccc(Nc2c3ccccc3nc3ccccc23)cc1
mutagenic call [7]: active; positive

O=S(=O)(O)c1cccc2cccnc12
mutagenic call [3]: inactive; negative | mutagenic call (Test System: AMES SALMONELLA TYPHIMURIUM, Strain/Indicator: TA98, Metabolic Activation: RAT, LIVER, S-9, AROCLOR 1254, Method: STANDARD PLATE): inactive; negative | mutagenic call [5]: inactive; negative | mutagenic call (Test System: AMES SALMONELLA TYPHIMURIUM, Strain/Indicator: TA100, Metabolic Activation: RAT, LIVER, S-9, AROCLOR 1254, Method: STANDARD PLATE): inactive; negative | mutagenic call (Test System: AMES SALMONELLA TYPHIMURIUM, Strain/Indicator: TA1535, Metabolic Activation: NONE, Method: STANDARD PLATE): inactive; negative | mutagenic call (Test System: AMES SALMONELLA TYPHIMURIUM, Strain/Indicator: TA1535, Metabolic Activation: RAT, LIVER, S-9, AROCLOR 1254, Method: STANDARD PLATE): inactive; negative | mutagenic call [7]: inactive; negative | mutagenic call (Test System: AMES SALMONELLA TYPHIMURIUM, Strain/Indicator: TA1537, Metabolic Activation: RAT, LIVER, S-9, AROCLOR 1254, Method: STANDARD PLATE): inactive; negative
